# Results published in the NIST ThermoML archive (doi:10.1016/j.jct.2015.05.011).
# ± gives the expanded uncertainty stated by the source.
# Columns and labels:
# [1] = Liquid; for viscosity: Falling or rolling sphere viscometry; for mass density: Vibrating tube method
# [2] = refractive index (Na D-line) (dimensionless); conditions: 298.15 K; 100 kPa; Liquid; Standard Abbe refractometry
# [3] = xn = mol fraction of the nth substance listed; conditions: 298.15 K; 100 kPa; Liquid; Falling or rolling sphere viscometry; x1 = 1
# [4] = refractive index (Na D-line) (dimensionless); xn = mol fraction of the nth substance listed; conditions: 298.15 K; 100 kPa; Liquid; Standard Abbe refractometry; x1 = 1
SMILES,"viscosity ([1]; 288.15 K, 101.33 kPa)","mass density ([1]; 288.15 K, 101.33 kPa)","viscosity ([1]; 293.15 K, 101.33 kPa)","mass density ([1]; 293.15 K, 101.33 kPa)","viscosity ([1]; 298.15 K, 101.33 kPa)","mass density ([1]; 298.15 K, 101.33 kPa)","viscosity ([1]; 303.15 K, 101.33 kPa)","mass density ([1]; 303.15 K, 101.33 kPa)","viscosity ([1]; 308.15 K, 101.33 kPa)","mass density ([1]; 308.15 K, 101.33 kPa)","viscosity ([1]; 313.15 K, 101.33 kPa)","mass density ([1]; 313.15 K, 101.33 kPa)","viscosity ([1]; 318.15 K, 101.33 kPa)","mass density ([1]; 318.15 K, 101.33 kPa)",refractive index [2],"viscosity ([1]; 298.15 K, 100 kPa)",viscosity [3],refractive index [4]
CCn1cc[n+](C)c1.N#C[C-](C#N)C#N [1-ethyl-3-methyl-1H-imidazolium tricyanomethanide],19.9 ± 0.43 mPa·s,1088.49 ± 0.15 kg/m3,16.54 ± 0.35 mPa·s,1084.93 ± 0.15 kg/m3,14 ± 0.3 mPa·s,1081.38 ± 0.15 kg/m3,11.99 ± 0.26 mPa·s,1077.84 ± 0.15 kg/m3,10.32 ± 0.22 mPa·s,1074.33 ± 0.15 kg/m3,8.9 ± 0.19 mPa·s,1070.83 ± 0.15 kg/m3,7.82 ± 0.17 mPa·s,1067.35 ± 0.14 kg/m3,1.51227 ± 0.00036,–,–,–
O [water],–,–,–,–,–,–,–,–,–,–,–,–,–,–,1.33252 ± 0.00035,0.89 ± 0.02 mPa·s,–,–
O [water] + CCn1cc[n+](C)c1.N#C[C-](C#N)C#N,–,–,–,–,–,–,–,–,–,–,–,–,–,–,–,–,0.89 ± 0.02 mPa·s,1.33252 ± 0.00035
